Measurements published in ChEMBL document CHEMBL2439971, “Design, synthesis and antiproliferative evaluation of fluorenone analogs with DNA topoisomerase I inhibitory properties” (Bioorg Med Chem, 2013).
Calls of active or inactive are those of the source. The calls are words filed in the database; no cut-off is given here.

Columns and labels:
RXF 393 = assay: Cytotoxicity against human RXF393 cells at 10 uM after 48 hrs by sulforhodamine B assay relative to control; type: functional
ACHN = assay: Cytotoxicity against human ACHN cells at 10 uM after 48 hrs by sulforhodamine B assay relative to control; type: functional
SW-620 = assay: Cytotoxicity against human SW620 cells at 10 uM after 48 hrs by sulforhodamine B assay relative to control; type: functional
HCT-116 = assay: Cytotoxicity against human HCT116 cells at 10 uM after 48 hrs by sulforhodamine B assay relative to control; type: functional
T47D = assay: Cytotoxicity against human T47D cells at 10 uM after 48 hrs by sulforhodamine B assay relative to control; type: functional
Malme-3M = assay: Cytotoxicity against human MALME-3M cells at 10 uM after 48 hrs by sulforhodamine B assay relative to control; type: functional
MOLT-4 = assay: Cytotoxicity against human MOLT4 cells at 10 uM after 48 hrs by sulforhodamine B assay relative to control; type: functional
CCRF-CEM = assay: Cytotoxicity against human CCRF-CEM cells at 10 uM after 48 hrs by sulforhodamine B assay relative to control; type: functional
IGROV-1 = assay: Cytotoxicity against human IGROV1 cells at 10 uM after 48 hrs by sulforhodamine B assay relative to control; type: functional
A549 = assay: Cytotoxicity against human A549 cells at 10 uM after 48 hrs by sulforhodamine B assay relative to control; type: functional
SF-295 = assay: Cytotoxicity against human SF295 cells at 10 uM after 48 hrs by sulforhodamine B assay relative to control; type: functional
UACC-62 = assay: Cytotoxicity against human UACC62 cells at 10 uM after 48 hrs by sulforhodamine B assay relative to control; type: functional
Homo sapiens = species: Homo sapiens; assay: Inhibition of telomerase (unknown origin) at 10 uM TRAP assay
OVCAR-3 = assay: Cytotoxicity against human OVCAR3 cells at 10 uM after 48 hrs by sulforhodamine B assay relative to control; type: functional
OVCAR-4 = assay: Cytotoxicity against human OVCAR4 cells at 10 uM after 48 hrs by sulforhodamine B assay relative to control; type: functional
UACC-257 = assay: Cytotoxicity against human UACC257 cells at 10 uM after 48 hrs by sulforhodamine B assay relative to control; type: functional
CAKI-1 = assay: Cytotoxicity against human CAKI-1 cells at 10 uM after 48 hrs by sulforhodamine B assay relative to control; type: functional
[1] = Cytotoxicity against human EKVX cells at 10 uM after 48 hrs by sulforhodamine B assay relative to control; type: functional
MDA-MB-435 = assay: Cytotoxicity against human MDA-MB-435 cells at 10 uM after 48 hrs by sulforhodamine B assay relative to control; type: functional
OVCAR-5 = assay: Cytotoxicity against human OVCAR5 cells at 10 uM after 48 hrs by sulforhodamine B assay relative to control; type: functional
LOX IMVI = assay: Cytotoxicity against human LOXIMVI cells at 10 uM after 48 hrs by sulforhodamine B assay relative to control; type: functional
SNB-75 = assay: Cytotoxicity against human SNB75 cells at 10 uM after 48 hrs by sulforhodamine B assay relative to control; type: functional
HCT-15 = assay: Cytotoxicity against human HCT15 cells at 10 uM after 48 hrs by sulforhodamine B assay relative to control; type: functional
SK-MEL-2 = assay: Cytotoxicity against human SK-MEL-2 cells at 10 uM after 48 hrs by sulforhodamine B assay relative to control; type: functional
MDA-MB-231 = assay: Cytotoxicity against human MDA-MB-231 cells at 10 uM after 48 hrs by sulforhodamine B assay relative to control; type: functional
HOP-62 = assay: Cytotoxicity against human HOP62 cells at 10 uM after 48 hrs by sulforhodamine B assay relative to control; type: functional
RPMI-8226 = assay: Cytotoxicity against human RPMI8226 cells at 10 uM after 48 hrs by sulforhodamine B assay relative to control; type: functional
786-0 = assay: Cytotoxicity against human 786-0 cells at 10 uM after 48 hrs by sulforhodamine B assay relative to control; type: functional
OVCAR-8 = assay: Cytotoxicity against human OVCAR8 cells at 10 uM after 48 hrs by sulforhodamine B assay relative to control; type: functional
SF-268 = assay: Cytotoxicity against human SF268 cells at 10 uM after 48 hrs by sulforhodamine B assay relative to control; type: functional
PC-3 [2] = assay: Cytotoxicity against human PC3 cells at 10 uM after 48 hrs by sulforhodamine B assay relative to control; type: functional
NCI/ADR-RES = assay: Cytotoxicity against human NCI/ADR-RES cells at 10 uM after 48 hrs by sulforhodamine B assay relative to control; type: functional
TK-10 = assay: Cytotoxicity against human TK10 cells at 10 uM after 48 hrs by sulforhodamine B assay relative to control; type: functional
MCF7 = assay: Cytotoxicity against human MCF7 cells at 10 uM after 48 hrs by sulforhodamine B assay relative to control; type: functional
SNB-19 = assay: Cytotoxicity against human SNB19 cells at 10 uM after 48 hrs by sulforhodamine B assay relative to control; type: functional
SF-539 = assay: Cytotoxicity against human SF539 cells at 10 uM after 48 hrs by sulforhodamine B assay relative to control; type: functional
NCI-H322M = assay: Cytotoxicity against human NCI-H322M cells at 10 uM after 48 hrs by sulforhodamine B assay relative to control; type: functional
HT-29 = assay: Cytotoxicity against human HT-29 cells at 10 uM after 48 hrs by sulforhodamine B assay relative to control; type: functional
HCC 2998 = assay: Cytotoxicity against human HCC2998 cells at 10 uM after 48 hrs by sulforhodamine B assay relative to control; type: functional
BT-549 = assay: Cytotoxicity against human BT549 cells at 10 uM after 48 hrs by sulforhodamine B assay relative to control; type: functional
NCI-H23 = assay: Cytotoxicity against human NCI-H23 cells at 10 uM after 48 hrs by sulforhodamine B assay relative to control; type: functional
COLO 205 = assay: Cytotoxicity against human COLO205 cells at 10 uM after 48 hrs by sulforhodamine B assay relative to control; type: functional
SN12C = assay: Cytotoxicity against human SN12C cells at 10 uM after 48 hrs by sulforhodamine B assay relative to control; type: functional
SR = assay: Cytotoxicity against human SR cells at 10 uM after 48 hrs by sulforhodamine B assay relative to control; type: functional
KM12 = assay: Cytotoxicity against human KM12 cells at 10 uM after 48 hrs by sulforhodamine B assay relative to control; type: functional
NCI-H460 = assay: Cytotoxicity against human NCI-H460 cells at 10 uM after 48 hrs by sulforhodamine B assay relative to control; type: functional
NCI-H522 = assay: Cytotoxicity against human NCI-H522 cells at 10 uM after 48 hrs by sulforhodamine B assay relative to control; type: functional
SK-MEL-28 = assay: Cytotoxicity against human SK-MEL-28 cells at 10 uM after 48 hrs by sulforhodamine B assay relative to control; type: functional
HL-60(TB) = assay: Cytotoxicity against human HL-60(TB) cells at 10 uM after 48 hrs by sulforhodamine B assay relative to control; type: functional
U-251 = assay: Cytotoxicity against human U251 cells at 10 uM after 48 hrs by sulforhodamine B assay relative to control; type: functional
SK-MEL-5 = assay: Cytotoxicity against human SK-MEL-5 cells at 10 uM after 48 hrs by sulforhodamine B assay relative to control; type: functional
UO-31 = assay: Cytotoxicity against human UO31 cells at 10 uM after 48 hrs by sulforhodamine B assay relative to control; type: functional
M14 = assay: Cytotoxicity against human M14 cells at 10 uM after 48 hrs by sulforhodamine B assay relative to control; type: functional
NCI-H226 = assay: Cytotoxicity against human NCI-H226 cells at 10 uM after 48 hrs by sulforhodamine B assay relative to control; type: functional
MDA-MB-468 = assay: Cytotoxicity against human MDA-MB-468 cells at 10 uM after 48 hrs by sulforhodamine B assay relative to control; type: functional
K562 = assay: Cytotoxicity against human K562 cells at 10 uM after 48 hrs by sulforhodamine B assay relative to control; type: functional
PC-3 [3] = assay: Cytotoxicity against human PC3 cells after 48 hrs by sulforhodamine B assay; type: functional, cell-based; details: PC-3, 48 h
[4] = Cytotoxicity against human Hs 578T cells at 10 uM after 48 hrs by sulforhodamine B assay relative to control; type: functional
DU-145 = assay: Cytotoxicity against human DU145 cells at 10 uM after 48 hrs by sulforhodamine B assay relative to control; type: functional

Structure (SMILES): O=C(CN1CCCC1)Nc1ccc2c(c1)C(=O)c1cc(NC(=O)CN3CCCC3)ccc1-2
- Activity (RXF 393): 88.07%
- Activity (ACHN): 102.77%
- Activity (SW-620): 68.12%
- Activity (HCT-116): 79.74%
- Activity (T47D): 105.79%
- Activity (Malme-3M): 130.28%
- Activity (MOLT-4): 61.26%
- Activity (CCRF-CEM): 68.3%
- Activity (IGROV-1): 86.73%
- Activity (A549): 76.89%
- Activity (SF-295): 86.51%
- Activity (UACC-62): 103.81%
- inhibition (Homo sapiens): inactive
- Activity (OVCAR-3): 113.24%
- Activity (OVCAR-4): 71.07%
- Activity (UACC-257): 106.11%
- Activity (CAKI-1): 91.43%
- Activity [1]: 100.27%
- Activity (MDA-MB-435): 84.99%
- Activity (OVCAR-5): 128.57%
- Activity (LOX IMVI): 90.25%
- Activity (SNB-75): 88.15%
- Activity (HCT-15): 99.02%
- Activity (SK-MEL-2): 106.76%
- Activity (MDA-MB-231): 73.88%
- Activity (HOP-62): 88.02%
- Activity (RPMI-8226): 78.34%
- Activity (786-0): 90.88%
- Activity (OVCAR-8): 69.01%
- Activity (SF-268): 107.06%
- Activity (PC-3 [2]): 85.69%
- Activity (NCI/ADR-RES): 93.68%
- Activity (TK-10): 91.73%
- Activity (MCF7): 62.7%
- Activity (SNB-19): 96.18%
- Activity (SF-539): 99.41%
- Activity (NCI-H322M): 73.45%
- Activity (HT-29): 19.04%
- Activity (HCC 2998): 90.44%
- Activity (BT-549): 101.36%
- Activity (NCI-H23): 93.89%
- Activity (COLO 205): 89.07%
- Activity (SN12C): 87.69%
- Activity (SR): 74.15%
- Activity (KM12): 85.82%
- Activity (NCI-H460): 88.56%
- Activity (NCI-H522): 72.46%
- Activity (SK-MEL-28): 103.08%
- Activity (HL-60(TB)): 84.5%
- Activity (U-251): 81.2%
- Activity (SK-MEL-5): 102.03%
- Activity (UO-31): 69.71%
- Activity (M14): 103.87%
- Activity (NCI-H226): 104.39%
- Activity (MDA-MB-468): 99.42%
- Activity (K562): 68.94%
- IC50 (PC-3 [3]): 7.78 µM
- Activity [4]: 100.68%
- Activity (DU-145): 83.47%

Structure (SMILES): CN1CCN(CCC(=O)Nc2ccc3c(c2)C(=O)c2cc(NC(=O)CCN4CCN(C)CC4)ccc2-3)CC1
- Activity (RXF 393): 97.03%
- Activity (ACHN): 100.97%
- Activity (SW-620): 105.36%
- Activity (HCT-116): 100.16%
- Activity (T47D): 102.07%
- Activity (Malme-3M): 98.05%
- Activity (MOLT-4): 94.59%
- Activity (CCRF-CEM): 97.76%
- Activity (IGROV-1): 102.45%
- Activity (A549): 106.9%
- Activity (UACC-62): 104.21%
- inhibition (Homo sapiens): inactive
- Activity (OVCAR-3): 116.35%
- Activity (OVCAR-4): 99.91%
- Activity (UACC-257): 103.02%
- Activity [1]: 111.18%
- Activity (OVCAR-5): 104.62%
- Activity (LOX IMVI): 96.43%
- Activity (SNB-75): 77.89%
- Activity (HCT-15): 101.35%
- Activity (SK-MEL-2): 109.38%
- Activity (MDA-MB-231): 115.67%
- Activity (HOP-62): 109.22%
- Activity (RPMI-8226): 106.48%
- Activity (786-0): 100.57%
- Activity (OVCAR-8): 101.48%
- Activity (SF-268): 109.98%
- Activity (PC-3 [2]): 104.35%
- Activity (NCI/ADR-RES): 103.89%
- Activity (TK-10): 99.67%
- Activity (MCF7): 95.72%
- Activity (SNB-19): 105.99%
- Activity (SF-539): 111.08%
- Activity (HT-29): 101.23%
- Activity (HCC 2998): 99.57%
- Activity (BT-549): 107.82%
- Activity (NCI-H23): 96.83%
- Activity (COLO 205): 108.32%
- Activity (SN12C): 102.94%
- Activity (SR): 92.06%
- Activity (KM12): 111.12%
- Activity (NCI-H460): 107.13%
- Activity (NCI-H522): 86.63%
- Activity (SK-MEL-28): 96.67%
- Activity (HL-60(TB)): 103.58%
- Activity (U-251): 100.29%
- Activity (SK-MEL-5): 107.35%
- Activity (UO-31): 89.26%
- Activity (M14): 105.74%
- Activity (NCI-H226): 98.16%
- Activity (MDA-MB-468): 88.91%
- Activity (K562): 99.19%
- IC50 (PC-3 [3]): > 30 µM
- Activity [4]: 102.5%
- Activity (DU-145): 112.6%
